Laboratory results as given in PMC4045772, “Structure of the BTB Domain of Keap1 and Its Interaction with the Triterpenoid Antagonist CDDO” (PLoS ONE, 2014).

Molecular target: T1, Keap1 (Homo sapiens, UniProt Q14145)
T1 construct: BTB plus part of BACK domain, residues 35-235, uncleaved N-terminal His-tag, E. coli BL21(DE3); AlphaScreen displacement of Cul3 (Cul3/Rbx1)
Assay: X-ray co-crystal structure ([…] Å) of the covalent complex; AlphaScreen inhibition of Cul3 binding with purified Keap1 […]

T1 sequence (P62877 whole entry, the tested form may be a part): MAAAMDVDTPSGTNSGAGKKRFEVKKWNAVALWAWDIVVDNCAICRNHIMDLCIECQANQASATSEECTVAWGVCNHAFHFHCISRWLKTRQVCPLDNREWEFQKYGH
T1 sequence (Q14145 35-235): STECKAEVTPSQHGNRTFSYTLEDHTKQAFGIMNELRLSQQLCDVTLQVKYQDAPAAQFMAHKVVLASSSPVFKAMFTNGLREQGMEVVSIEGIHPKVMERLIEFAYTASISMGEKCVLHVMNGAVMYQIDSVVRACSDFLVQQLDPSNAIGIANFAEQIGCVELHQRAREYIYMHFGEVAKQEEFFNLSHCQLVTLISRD
T1 sequence (Q13618 2-768, further chain): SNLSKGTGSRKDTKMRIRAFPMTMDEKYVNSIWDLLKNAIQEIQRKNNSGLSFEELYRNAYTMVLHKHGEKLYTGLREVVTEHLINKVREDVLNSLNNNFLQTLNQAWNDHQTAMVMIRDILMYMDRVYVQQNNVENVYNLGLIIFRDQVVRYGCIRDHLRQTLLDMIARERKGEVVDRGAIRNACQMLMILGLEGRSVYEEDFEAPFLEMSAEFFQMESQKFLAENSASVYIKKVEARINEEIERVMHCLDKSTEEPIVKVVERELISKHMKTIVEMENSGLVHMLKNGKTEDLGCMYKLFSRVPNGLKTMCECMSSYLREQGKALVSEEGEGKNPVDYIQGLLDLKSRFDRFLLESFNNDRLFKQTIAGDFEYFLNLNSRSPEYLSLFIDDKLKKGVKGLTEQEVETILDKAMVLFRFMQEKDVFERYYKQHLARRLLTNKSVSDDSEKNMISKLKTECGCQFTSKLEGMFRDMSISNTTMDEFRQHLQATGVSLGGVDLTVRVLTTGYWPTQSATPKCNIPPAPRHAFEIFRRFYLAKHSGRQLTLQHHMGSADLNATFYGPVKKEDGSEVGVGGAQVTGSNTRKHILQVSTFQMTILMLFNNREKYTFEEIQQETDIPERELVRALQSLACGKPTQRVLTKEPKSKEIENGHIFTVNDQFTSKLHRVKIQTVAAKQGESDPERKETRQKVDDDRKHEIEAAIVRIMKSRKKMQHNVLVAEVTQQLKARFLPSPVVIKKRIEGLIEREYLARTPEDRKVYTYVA

CC1(C)CC[C@]2(C(=O)O)CC[C@]3(C)[C@H](C(=O)C=C4[C@@]5(C)C=C(C#N)C(=O)C(C)(C)[C@@H]5CC[C@]43C)[C@@H]2C1 [CDDO, 2-cyano-3,12-dioxooleana-1,9-dien-28-oic-acid]
IC50: < 0.1 µM
